# Measured values from patent US4636464A (priority 1985, dated 1987).
# Columns and labels:
# Type in all cases: biochemical, Coriolus versicolor
# [1] = target: T1, pyranose oxidase (Trametes versicolor, UniProt P79076); assay: biochemical; set-up: activity: dose or concentration left out as unconfirmed; conditions: for activity: pH 7, read-out: Relative Activity (%); for activity at 100000 µM: pH 7, read-out: Relative Activity (%); for Substrate specificity in words: same test as Table 1
# T1 construct: made in house; not recombinant
# Procedure: Said coloring reagent is prepared by adding 0.1M tris-hydrochloride buffer (pH 7.0) containing 10 m mol/l 4-aminoantipyrine(hereinafter referred to as 4AA) and 10 m mol/l phenol, to peroxidase in a concentration of 2000 U per 100 ml of the buffer. The increasing rate of the absorbancy at 500 nm is automatically measured on a spectrophotometer. The molecular extinction coefficient of a quinoneimine pigment formed under these conditions is defined as 5.3×10^3, and one unit of the enzymatic activity is also defined as the amount of the enzyme that produces one μ mole of hydrogen peroxide per minute at a temperature of 37° C. and at a pH of 7.0.
# The results are expressed as percentages of the glucose reaction.
# [2] = target: T1, pyranose oxidase; conditions: for Percent Inhibition (%): 0.2 ml of 18.5 mM inhibitor solution, 280 mU pyranose oxidase, pH 7.0, 37° C.
# Text: The inhibitor is studied in the same manner as that adopted in determination of the optimum pH.
# [3] = target: T1, pyranose oxidase; assay: Electron acceptor test (Thunberg tube, absorbancy change)
# Procedure: In this phase, 1.4 ml of 50 mM tris-hydrochloride buffer (pH 7.0), 0.1 ml of 250 mU enzyme solution and 0.5 ml of electron acceptor solutions having various concentrations as indicated in Table 2 are put into a cell with Thunberg tube. […] The change in absorbancy per minute from 30 minutes to 90 minutes after the mixturing is determined and the activities of the electron acceptors are expressed as relative activity.
# [4] = electron acceptor solution 0.1 mM, pH 7.0, dissolved oxygen removed, read-out: Relative Activity (%)
# [5] = electron acceptor solution 0.1 mM, pH 7.0, dissolved oxygen removed
molecule,measurement,setting,value
OC[C@H]1O[C@H](O[C@H]2O[C@H](CO)[C@@H](O)[C@H](O)[C@H]2O)[C@H](O)[C@@H](O)[C@@H]1O [trehalose],activity,[1],0%
O=C(CO)[C@@H](O)[C@H](O)[C@H](O)CO [fructose],activity at 100000 µM,[1],0%
O=C(O)c1cc[c]([Hg][Cl])cc1 [p-chloromercuribenzoate],Inhibition of the enzymatic action in words,[2],inhibited
same,Percent Inhibition (%),[2],50.0%
OC[C@H]1O[C@H](O[C@H]2[C@H](O)[C@@H](O)[C@H](O)O[C@@H]2CO)[C@H](O)[C@@H](O)[C@@H]1O [maltose],activity,[1],0%
O=S(=O)([O-])[O-].[Mg+2] [magnesium sulfate],Percent Inhibition (%),[2],0%
O=S(=O)([O-])[O-].[Co+2] [cobalt sulfate],Percent Inhibition (%),[2],13.3%
"O=C1C(Cl)=CC(=Nc2ccc(O)cc2)C=C1Cl [2,6-Dichlorophenolindophenol]",Suitability as electron acceptor in words,[3],may be made electron acceptor
same,activity at 40 µM (stock),"[3]; electron acceptor solution 0.04 mM, pH 7.0, dissolved oxygen removed, read-out: Relative Activity (%)",2.5%
O=S(=O)([O-])[O-].[Cu+2] [copper sulfate],Inhibition of the enzymatic action in words,[2],inhibited
same,Percent Inhibition (%),[2],35.7%
O=O [Oxygen],Suitability as electron acceptor in words,[3],optimum electron acceptor
same,Relative Activity (%),"[3]; electron acceptor: dissolved oxygen, pH 7.0, glucose substrate",100%
O=C(O)[C@H](O)[C@@H](O)[C@H](O)[C@H](O)CO [gluconic acid],activity,[1],0%
OC1OC[C@@H](O)[C@H](O)[C@H]1O (stereo partly shown) [xylose],activity,[1],2.6%
same,Substrate specificity in words,[1],acts upon
NC(=O)c1ccc[n+]([C@@H]2O[C@H](COP(=O)([O-])OP(=O)(O)OC[C@H]3O[C@@H](n4cnc5c(N)ncnc54)[C@H](O)[C@@H]3O)[C@@H](O)[C@H]2O)c1 [Nicotinamide-adenine dinucleotide],activity at 100 µM (stock),[3]; [4],0%
O=C(CO)[C@H](O)[C@@H](O)[C@H](O)CO [sorbose],activity at 100000 µM,[1],3.4%
same,Substrate specificity in words,[1],acts upon
N[C@H]1C(O)O[C@H](CO)[C@@H](O)[C@@H]1O (stereo partly shown) [glucosamine],activity,[1],0%
O=[N+]([O-])[O-].[Ag+] [silver nitrate],Inhibition of the enzymatic action in words,[2],inhibited
same,Percent Inhibition (%),[2],53.3%
OC[C@H]1O[C@@H](O[C@H]2[C@H](O)[C@@H](O)C(O)O[C@@H]2CO)[C@H](O)[C@@H](O)[C@H]1O (stereo partly shown) [lactose],activity,[1],0%
NC(=O)c1ccc[n+]([C@@H]2O[C@H](COP(=O)([O-])OP(=O)(O)OC[C@H]3O[C@@H](n4cnc5c(N)ncnc54)[C@H](OP(=O)(O)O)[C@@H]3O)[C@@H](O)[C@H]2O)c1 [Nicotinamide-adenine dinucleotide phosphate],activity at 100 µM (stock),[3]; [4],0%
Nitroprusside-tetrazolium,Relative Activity (%),[3]; [5],0%
OC[C@@H](O)[C@@H](O)[C@H](O)[C@H](O)CO [mannitol],activity,[1],0%
Cytochrome C,Suitability as electron acceptor in words,[3],may be made electron acceptor
same,Relative Activity (%),[3]; [5],0.33%
